Patent US20220120736A1, “METHODS AND ASSAYS FOR MODULATING GENE TRANSCRIPTION BY MODULATING CONDENSATES” (Whitehead Institute for Biomedical Research, priority 2018, published 2022)

Tests used:
[1] = tested on: MED1 signal at the MYC locus in MCF7 cells; assay: Immunofluorescence for MED1 with DNA FISH at the MYC locus; type: cell-based, human; settings: MCF7 cells estrogen-deprived 3 days; 10 uM estradiol, or 10 uM estradiol and 5 uM 4-hydroxytamoxifen, 45 minutes
Protocol: Human tumor tissues sliced at 10 μm thickness or cells grown on Poly-L-Ornithine coated glass were washed once with PBS and fixed in 4% Paraformaldehyde, PFA, (VWR, BT140770) for 10 minutes. After three washes in PBS for 5 min, cells were stored at 4° C. or transferred to a humidifying chamber and processed for immunofluorescence. Permeabilization of cells was performed using 0.5% triton X100 (Sigma Aldrich, X100) in PBS for 10 minutes followed by three PBS washes. Cells were blocked with 4% IgG-free Bovine Serum Albumin, BSA, (VWR, 102643-516) for 30 minutes and the indicated primary antibody (ER ab32063, MED1 ab64965) was added at a concentration of 1:500 in 4% IgG-free Bovine Serum Albumin for 4-16 hours. […]
For analysis of RNA/DNA FISH with immunofluorescence, custom Python scripts were written to process and analyze 3D image data gathered in FISH and IF channels. […] These FISH foci were filtered by various criteria, including size (minimum 100 voxels), circularity of a max z-projection (circularity=4pi*area/perimeter^2; 0.7), and being present in a nucleus (determined by nuclear mask described above). […] The IF signal centered at FISH foci for each FISH and IF pair are then combined and an average intensity projection is calculated, providing averaged data for IF signal intensity within a l×l square centered at FISH foci. […]

[2] = tested on: ER LBD-MED1 condensate in U2OS-Lac cells; assay: LAC binding assay (ER LBD tethered to Lac array); type: cell-based; settings: for MED1-containing condensate formation at tethered ER LBD: U2OS-Lac cells, 45 minutes, 10 nM B-Estradiol or 1 uM 4-Hydroxytamoxifen
Protocol: Constructs were assembled by NEB HIFI cloning in pSV2 mammalian expression vector containing an SV40 promoter driving expression of a CFP-LacI fusion protein. The activation domains and mutant activation domains of ESR1 were fused by the c-terminus to this recombinant protein, joined by the linker sequence […] (SEQ ID NO: 14). For some experiments a variant plasmid with mCherry in place of CFP was used. […] Cells were then plated on fibronectin-coated glass coverslips and transfected using lipofectamine 3000 (Thermofisher L3000015). For high MED1 conditions, a construct with a mammalian expression vector containing a PGK promoter driving the expression of MED1 fused to GFP was co-transfected. […] Following treatment, cells were fixed and immunofluorescence was performed with a MED1 antibody as described above.
For analysis of Lac array data, custom Python scripts were written to process and analyze image data gathered in Lac and tagged-protein channels. Nuclear stains were blurred with a Gaussian filter (sigma=2.0) and clustered into 2 clusters (nuclei and background) by K-means. The nuclei were then labeled with the python scikit-image package using the measure.label function. To segment Lac spots, the Lac image channel was blurred with a Gaussian filter (sigma=2.0), and an intensity threshold (mean+1.5*std) was applied to the image. Segmented regions (also determined by measure.label) were then filtered based on minimum area (150 pixels), maximum area (2000 pixels), circularity (c=4pi*area/perimeter^2; 0.8), and presence in a nucleus as defined by the mask described above. A norm enrichment ratio was calculated by determining the mean intensity of the tagged-protein in the segmented Lac spot and dividing it by the mean intensity of the tagged-protein present in the same whole nucleus.

Compound	MED1 signal at MYC [1]	MED1-containing condensate formation at tethered ER LBD [2]	MED1 condensate formation at tethered ER LBD, dependence on estrogen ([2]; normal ER)	MED1 condensate generation by tethered ER LBD in the presence of tamoxifen ([2]; MED1 overexpressed)	MED1 condensate generation by tethered ER LBD in the presence of tamoxifen ([2]; normal MED1 levels)
C[C@]12CC[C@@H]3c4ccc(O)cc4CC[C@H]3[C@@H]1CC[C@@H]2O [estrogen, B-Estradiol]	enhanced	generated a MED1-containing condensate	only in the presence of estrogen		
CC/C(=C(\c1ccccc1)c1ccc(OCCN(C)C)cc1)c1ccccc1 [tamoxifen]	reduced	prevented		generated a MED1 condensate	did not generate a MED1 condensate
